Laboratory results: the NIST ThermoML archive (doi:10.1021/je800110r)
Where “and” joins values, the source holds several entries; their conditions need not be identical. Identical values can stand only once. ± gives the expanded uncertainty stated by the source.

Conditions: 313.14 K, Liquid, Vibrating tube method

CCCCCCCCCC [decane]
Conditions	mass density
4519 kPa	718.5 ± 2 kg/m3
4530 kPa	718.5 ± 2 kg/m3
4546 kPa	718.5 ± 2 kg/m3
4557 kPa	718.5 ± 2 kg/m3
4572 kPa	718.5 ± 2 kg/m3
4582 kPa	718.5 ± 2 kg/m3
4599 kPa	718.5 ± 2 kg/m3
4610 kPa	718.6 ± 2 kg/m3
4621 kPa	718.5 ± 2 kg/m3
4637 kPa	718.6 ± 2 kg/m3
4652 kPa	718.6 ± 2 kg/m3
4667 kPa	718.6 ± 2 kg/m3
4685 kPa	718.6 ± 2 kg/m3
4705 kPa	718.7 ± 2 kg/m3
4723 kPa	718.6 ± 2 kg/m3
4741 kPa	718.8 ± 2 kg/m3
4755 kPa	718.6 ± 2 kg/m3
4774 kPa	718.6 ± 2 kg/m3
4792 kPa	718.7 ± 2 kg/m3
4814 kPa	718.7 ± 2 kg/m3
4825 kPa	718.7 ± 2 kg/m3
4842 kPa	718.7 ± 2 kg/m3
4859 kPa	718.8 ± 2 kg/m3
4873 kPa	718.8 ± 2 kg/m3
4891 kPa	718.7 ± 2 kg/m3
4913 kPa	718.8 ± 2 kg/m3
4930 kPa	718.8 ± 2 kg/m3
4945 kPa	718.8 ± 2 kg/m3
4968 kPa	718.8 ± 2 kg/m3
4991 kPa	718.9 ± 2 kg/m3
5004 kPa	718.8 ± 2 kg/m3
5027 kPa	718.9 ± 2 kg/m3
5042 kPa	718.9 ± 2 kg/m3
5063 kPa	718.9 ± 2 kg/m3
5079 kPa	719 ± 2 kg/m3
5092 kPa	719 ± 2 kg/m3
5111 kPa	719 ± 2 kg/m3
5130 kPa	719 ± 2 kg/m3
5149 kPa	719 ± 2 kg/m3
5165 kPa	718.9 ± 2 kg/m3
5185 kPa	719 ± 2 kg/m3
5207 kPa	719 ± 2 kg/m3
5230 kPa	719.2 ± 2 kg/m3
5251 kPa	719.2 ± 2 kg/m3
5270 kPa	719.1 ± 2 kg/m3
5300 kPa	719.2 ± 2 kg/m3
5315 kPa	719.3 ± 2 kg/m3
5316 kPa	719.2 ± 2 kg/m3
5318 kPa	719.2 ± 2 kg/m3
5320 kPa	719.2 ± 2 kg/m3
5321 kPa	719.1 ± 2 kg/m3 and 719.3 ± 2 kg/m3
5322 kPa	719.2 ± 2 kg/m3
5338 kPa	719.1 ± 2 kg/m3
5355 kPa	719.1 ± 2 kg/m3
5373 kPa	719.2 ± 2 kg/m3
5385 kPa	719.3 ± 2 kg/m3
5399 kPa	719.3 ± 2 kg/m3
5414 kPa	719.1 ± 2 kg/m3
5430 kPa	719.2 ± 2 kg/m3
5444 kPa	719.2 ± 2 kg/m3
5461 kPa	719.2 ± 2 kg/m3
5478 kPa	719.2 ± 2 kg/m3
5498 kPa	719.3 ± 2 kg/m3
5515 kPa	719.3 ± 2 kg/m3
5537 kPa	719.4 ± 2 kg/m3
5552 kPa	719.4 ± 2 kg/m3
5568 kPa	719.4 ± 2 kg/m3
5586 kPa	719.4 ± 2 kg/m3
5603 kPa	719.4 ± 2 kg/m3
5622 kPa	719.4 ± 2 kg/m3
5636 kPa	719.4 ± 2 kg/m3
5655 kPa	719.4 ± 2 kg/m3
5671 kPa	719.5 ± 2 kg/m3
5686 kPa	719.4 ± 2 kg/m3
5705 kPa	719.4 ± 2 kg/m3
5721 kPa	719.5 ± 2 kg/m3
5739 kPa	719.5 ± 2 kg/m3
5753 kPa	719.5 ± 2 kg/m3
5771 kPa	719.5 ± 2 kg/m3
5788 kPa	719.6 ± 2 kg/m3
5803 kPa	719.5 ± 2 kg/m3
5819 kPa	719.6 ± 2 kg/m3
5838 kPa	719.5 ± 2 kg/m3
5852 kPa	719.6 ± 2 kg/m3
5871 kPa	719.7 ± 2 kg/m3
5889 kPa	719.6 ± 2 kg/m3
5906 kPa	719.7 ± 2 kg/m3
5927 kPa	719.6 ± 2 kg/m3
5946 kPa	719.7 ± 2 kg/m3
5963 kPa	719.6 ± 2 kg/m3
5982 kPa	719.7 ± 2 kg/m3
6002 kPa	719.7 ± 2 kg/m3
6019 kPa	719.8 ± 2 kg/m3
6042 kPa	719.8 ± 2 kg/m3
6064 kPa	719.8 ± 2 kg/m3
6084 kPa	719.8 ± 2 kg/m3
6100 kPa	719.8 ± 2 kg/m3
6120 kPa	719.9 ± 2 kg/m3
6140 kPa	719.8 ± 2 kg/m3
6162 kPa	719.8 ± 2 kg/m3
6180 kPa	719.9 ± 2 kg/m3
6198 kPa	719.9 ± 2 kg/m3
6202 kPa	719.8 ± 2 kg/m3
6204 kPa	719.9 ± 2 kg/m3
6213 kPa	719.9 ± 2 kg/m3
6230 kPa	719.9 ± 2 kg/m3
6246 kPa	719.9 ± 2 kg/m3
6262 kPa	720 ± 2 kg/m3
6278 kPa	719.9 ± 2 kg/m3
6295 kPa	720 ± 2 kg/m3
6313 kPa	720 ± 2 kg/m3
6332 kPa	720 ± 2 kg/m3
6353 kPa	720.1 ± 2 kg/m3
6367 kPa	720 ± 2 kg/m3
6383 kPa	720 ± 2 kg/m3
6398 kPa	720.1 ± 2 kg/m3
6420 kPa	720.1 ± 2 kg/m3
6438 kPa	720.1 ± 2 kg/m3
6453 kPa	720 ± 2 kg/m3
6472 kPa	720.1 ± 2 kg/m3
6484 kPa	720 ± 2 kg/m3
6500 kPa	720.1 ± 2 kg/m3
6518 kPa	720.1 ± 2 kg/m3
6531 kPa	720.1 ± 2 kg/m3
6545 kPa	720.1 ± 2 kg/m3
6559 kPa	720.1 ± 2 kg/m3
6575 kPa	720.1 ± 2 kg/m3
6586 kPa	720.2 ± 2 kg/m3
6599 kPa	720.3 ± 2 kg/m3
6611 kPa	720.2 ± 2 kg/m3
6626 kPa	720.1 ± 2 kg/m3
6643 kPa	720.3 ± 2 kg/m3
6658 kPa	720.3 ± 2 kg/m3
6675 kPa	720.3 ± 2 kg/m3
6689 kPa	720.2 ± 2 kg/m3
6708 kPa	720.2 ± 2 kg/m3
6723 kPa	720.2 ± 2 kg/m3
6742 kPa	720.4 ± 2 kg/m3
6755 kPa	720.3 ± 2 kg/m3
6767 kPa	720.4 ± 2 kg/m3
6785 kPa	720.4 ± 2 kg/m3
6815 kPa	720.3 ± 2 kg/m3
6833 kPa	720.3 ± 2 kg/m3
6865 kPa	720.4 ± 2 kg/m3
6886 kPa	720.5 ± 2 kg/m3
6901 kPa	720.4 ± 2 kg/m3
6948 kPa	720.6 ± 2 kg/m3
6966 kPa	720.6 ± 2 kg/m3
6975 kPa	720.6 ± 2 kg/m3
6989 kPa	720.6 ± 2 kg/m3
7007 kPa	720.5 ± 2 kg/m3
7019 kPa	720.6 ± 2 kg/m3
7031 kPa	720.6 ± 2 kg/m3
7045 kPa	720.6 ± 2 kg/m3
7061 kPa	720.6 ± 2 kg/m3
7077 kPa	720.6 ± 2 kg/m3
7089 kPa	720.7 ± 2 kg/m3
7101 kPa	720.6 ± 2 kg/m3
7118 kPa	720.6 ± 2 kg/m3
7136 kPa	720.7 ± 2 kg/m3
7149 kPa	720.6 ± 2 kg/m3
7165 kPa	720.7 ± 2 kg/m3
7180 kPa	720.7 ± 2 kg/m3
7195 kPa	720.7 ± 2 kg/m3
7209 kPa	720.7 ± 2 kg/m3
7226 kPa	720.7 ± 2 kg/m3
7241 kPa	720.8 ± 2 kg/m3
7252 kPa	720.6 ± 2 kg/m3
7264 kPa	720.7 ± 2 kg/m3
7279 kPa	720.8 ± 2 kg/m3
7292 kPa	720.8 ± 2 kg/m3
7306 kPa	720.8 ± 2 kg/m3
7317 kPa	720.7 ± 2 kg/m3
7332 kPa	720.8 ± 2 kg/m3
7347 kPa	720.8 ± 2 kg/m3
7360 kPa	720.9 ± 2 kg/m3
7375 kPa	720.8 ± 2 kg/m3
7392 kPa	720.9 ± 2 kg/m3
7410 kPa	720.8 ± 2 kg/m3
7423 kPa	720.9 ± 2 kg/m3
7441 kPa	720.8 ± 2 kg/m3
7455 kPa	720.9 ± 2 kg/m3
7473 kPa	720.9 ± 2 kg/m3
7487 kPa	721 ± 2 kg/m3
7507 kPa	721 ± 2 kg/m3
7523 kPa	721 ± 2 kg/m3
7537 kPa	720.9 ± 2 kg/m3
7553 kPa	720.9 ± 2 kg/m3
7569 kPa	721.1 ± 2 kg/m3
7590 kPa	721 ± 2 kg/m3
7605 kPa	721 ± 2 kg/m3
7621 kPa	721.1 ± 2 kg/m3
7635 kPa	721.1 ± 2 kg/m3
7652 kPa	721.1 ± 2 kg/m3
7666 kPa	721.1 ± 2 kg/m3
7683 kPa	721.1 ± 2 kg/m3
7702 kPa	721 ± 2 kg/m3
7717 kPa	721.1 ± 2 kg/m3
7731 kPa	721.2 ± 2 kg/m3
7750 kPa	721.2 ± 2 kg/m3
7768 kPa	721.2 ± 2 kg/m3
7782 kPa	721.1 ± 2 kg/m3
7805 kPa	721.2 ± 2 kg/m3
7820 kPa	721.3 ± 2 kg/m3
7835 kPa	721.2 ± 2 kg/m3
7851 kPa	721.3 ± 2 kg/m3
7873 kPa	721.2 ± 2 kg/m3
7890 kPa	721.3 ± 2 kg/m3
7910 kPa	721.2 ± 2 kg/m3
7922 kPa	721.3 ± 2 kg/m3
7941 kPa	721.2 ± 2 kg/m3
7959 kPa	721.4 ± 2 kg/m3
8144 kPa	721.4 ± 2 kg/m3
8162 kPa	721.4 ± 2 kg/m3
8174 kPa	721.5 ± 2 kg/m3
8184 kPa	721.6 ± 2 kg/m3
8194 kPa	721.6 ± 2 kg/m3
8205 kPa	721.5 ± 2 kg/m3
8220 kPa	721.6 ± 2 kg/m3
8237 kPa	721.5 ± 2 kg/m3
8248 kPa	721.5 ± 2 kg/m3
8262 kPa	721.5 ± 2 kg/m3
8277 kPa	721.6 ± 2 kg/m3
8293 kPa	721.5 ± 2 kg/m3
8309 kPa	721.7 ± 2 kg/m3
8321 kPa	721.6 ± 2 kg/m3
8338 kPa	721.7 ± 2 kg/m3
8352 kPa	721.6 ± 2 kg/m3
8364 kPa	721.7 ± 2 kg/m3
8383 kPa	721.6 ± 2 kg/m3
8395 kPa	721.7 ± 2 kg/m3
8410 kPa	721.7 ± 2 kg/m3
8421 kPa	721.7 ± 2 kg/m3
8435 kPa	721.8 ± 2 kg/m3
8448 kPa	721.8 ± 2 kg/m3
8462 kPa	721.7 ± 2 kg/m3
8482 kPa	721.9 ± 2 kg/m3
8494 kPa	721.8 ± 2 kg/m3
8514 kPa	721.7 ± 2 kg/m3
8524 kPa	721.8 ± 2 kg/m3
8544 kPa	721.9 ± 2 kg/m3
8559 kPa	721.8 ± 2 kg/m3
8579 kPa	721.8 ± 2 kg/m3
8592 kPa	721.8 ± 2 kg/m3
8614 kPa	721.8 ± 2 kg/m3
8629 kPa	721.8 ± 2 kg/m3
8680 kPa	721.9 ± 2 kg/m3
8691 kPa	722.1 ± 2 kg/m3
8725 kPa	722.1 ± 2 kg/m3
8740 kPa	722 ± 2 kg/m3
8754 kPa	722 ± 2 kg/m3
8773 kPa	722 ± 2 kg/m3
8791 kPa	722 ± 2 kg/m3
8807 kPa	722.1 ± 2 kg/m3
8821 kPa	722 ± 2 kg/m3
8835 kPa	721.9 ± 2 kg/m3
8858 kPa	722.1 ± 2 kg/m3
8876 kPa	722.2 ± 2 kg/m3
8897 kPa	722.1 ± 2 kg/m3
8911 kPa	722.1 ± 2 kg/m3
8930 kPa	722.1 ± 2 kg/m3
8944 kPa	722 ± 2 kg/m3
8964 kPa	722 ± 2 kg/m3
8980 kPa	722.1 ± 2 kg/m3
9004 kPa	722.1 ± 2 kg/m3
9023 kPa	722.2 ± 2 kg/m3
9038 kPa	722.2 ± 2 kg/m3
9053 kPa	722.2 ± 2 kg/m3
9075 kPa	722.3 ± 2 kg/m3
9092 kPa	722.2 ± 2 kg/m3
9106 kPa	722.2 ± 2 kg/m3
9121 kPa	722.3 ± 2 kg/m3
9138 kPa	722.3 ± 2 kg/m3
